Measurements taken from patent US20150010498A1, “Immunocytokines for Cancer Treatment in Combination with Chemotherapeutic Agents” (Philogen S.p.A., priority 2007, published 2015).

Assays:
[1] = tested on: MDA-MB-231 human breast cancer cells; experiment: Therapy of MDA-MB231 human breast cancer model implanted in nude mice (tumor growth); type: in vivo, Balb/c nude female mice; conditions: 4 mg/kg versus 1 mg/kg doxorubicin i.v.; FIG. 5
Method: Tumor-bearing mice were obtained by injecting 2*10̂7 MDA-MB-231 human breast cancer cells s.c. in 10- to 12-week old Balb/c nude female mice (Charles River Laboratories). Mice were grouped (n=5) 9 days after tumor cell implantation when tumors were clearly palpable and injected i.v. in the lateral tail vein with saline, 20 μg F16-IL2 (corresponding to 6.6 μg IL2), 6.6 μg recombinant IL2 (Proleukin®, and 4 mg/kg or 1 mg/kg Doxorubicin in a maximum volume of 250 μl. Mice were monitored daily and tumor growth was measured three times weekly with a caliper using the following formula: volume=length×width2×0.5. Animals were sacrificed when tumors reached a volume >2000 mm3 or when tumors became necrotic according to Swiss regulations and under a project license granted by the
Veterinäramt des Kantons Zürich (198/2005). Tumor sizes are expressed as mean±SE.
Tumor-bearing mice produced in the same way were injected i.v. in the lateral tail vein with saline, 20 μg F16-IL2 (corresponding to 6.6 μg IL2), and 1 mg/kg or 5 mg/kg taxol™ in a maximum volume of 250 μl. Mice were monitored and tumor growth measured as described above.

tubulin = conditions: compared with paclitaxel; cited from earlier work
[2] = tested on: MDA-MB-231 human breast cancer cells; experiment: Biodistribution of radioiodinated F16-IL2 after doxorubicin pre-injection; type: in vivo, Balb/c nude female mice; conditions: radioiodinated F16-IL2 i.v., sacrifice 24 h after injection; 10 mg/kg doxorubicin i.v. 8 days, 24 h or 2 h before; FIGS. 1 to 4
Method: The in vivo targeting performance was evaluated by biodistribution analysis. Tumor-bearing mice were obtained by injecting 10̂7 MDA-MB-231 human breast cancer cells s.c. in 10- to 12-week old Balb/c nude female mice (Charles River Laboratories). Mice were grouped (n≧5) when tumors were clearly palpable and injected i.v. in the lateral tail vein with 10 mg/kg doxorubicin 8 days, 24 h or 2 h prior to biodistribution. The control group was exempted from doxorubicin administration. Purified F16-IL2 was radioiodinated and injected into the lateral tail vein of all mice. Mice were sacrificed 24 h after injection (12.5 μg, 3.3 μCi per mouse). Organs were weighed and radioactivity was counted with a Packard Cobra gamma counter. Radioactivity content of representative organs was expressed as the percentage of the injected dose per gram of tissue (%ID/g).

COc1cccc2c1C(=O)c1c(O)c3c(c(O)c1C2=O)C[C@@](O)(C(=O)CO)C[C@@H]3OC1CC(N)C(O)C(C)O1 (stereo partly drawn) [doxorubicin, (8S, 10S)-10-(4-amino-5-hydroxy-6-methyl-tetrahydro-2H-pyran-2-yloxy)-6,8,11-trihydroxy-8-(2-hydroxyacetyl)-1-methoxy-7,8,9,10-tetrahydrotetracene-5,12-dione]
effect of doxorubicin dose on efficacy [1]: higher doses of doxorubicin were even more effective than low doses

A-nor-paclitaxel
tubulin-assembly activity relative to paclitaxel (tubulin): only three times less than that of paclitaxel

F16-IL2: antibody-IL2 conjugate: interleukin 2 conjugated to the anti-tenascin-C antibody 4A1-F16 (VH SEQ ID NO. 2, VL SEQ ID NO. 4)
tumor targeting of the immunocytokine (biodistribution, %ID/g) [2]: does not impair the tumor targeting
